Measurements as given in the supplement of paper PMC10307832.

What was measured:
Test in all cases: relative viability (nuclei count vs DMSO), 5 days (fraction); higher = more cells survive
LK-2 = tested on: LK-2
Outline: (§1)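 After 5 days of treatment, lung cancer cells in 1536-well plates were fixed and stained in a single step (final 0.05% Triton X-100, 1% formaldehyde, 1 ug/ml Hoechst) and their nuclei counted on 4× images. Treatment had been applied by pin tool the day after seeding as one drug alone or as a fixed anchor-drug dose with five library-drug doses (not always all listed) in √10 steps. Relative viability is the nuclei count of treated wells divided by that of vehicle wells, and values are medians of duplicate plates.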

RERF-LC-KJ = tested on: RERF-LC-KJ
Outline: as §1

NCI-H1563 = tested on: NCI-H1563
Outline: as §1

HCC-827 = tested on: HCC-827
Outline: as §1

PC-3 [JPC-3] = tested on: PC-3 [JPC-3]
Outline: as §1

NCI-H520 = tested on: NCI-H520
Outline: as §1

NCI-H1437 = tested on: NCI-H1437
Outline: as §1

EKVX = tested on: EKVX
Outline: as §1

CAL-12T = tested on: CAL-12T
Outline: as §1

NCI-H1650 = tested on: NCI-H1650
Outline: as §1

HCC-15 = tested on: HCC-15
Outline: as §1

PC-14 = tested on: PC-14
Outline: as §1

NCI-H1734 = tested on: NCI-H1734
Outline: as §1

COR-L23 = tested on: COR-L23
Outline: as §1

SW 1573 = tested on: SW 1573
Outline: as §1

NCI-H1355 = tested on: NCI-H1355
Outline: as §1

NCI-H661 = tested on: NCI-H661
Outline: as §1

NCI-H322M = tested on: NCI-H322M
Outline: as §1

H3255 = tested on: H3255
Outline: as §1

ABC-1 = tested on: ABC-1
Outline: as §1

NCI-H2405 = tested on: NCI-H2405
Outline: as §1

NCI-H2228 = tested on: NCI-H2228
Outline: as §1

For Oc1nc(-c2ccc(C(F)(F)F)cc2)nc2c1CSCC2 [XAV939] + C[C@@H](Oc1cc(-c2cnn(C3CCNCC3)c2)cnc1N)c1c(Cl)ccc(F)c1Cl [Crizotinib] (partner 1 µM), the relative viability (LK-2; first compound 0.08 µM) was 0.178, the relative viability (LK-2; first compound 0.253 µM) was 0.224 and the relative viability (LK-2; first compound 0.8 µM) was 0.181. For the same compound, the relative viability (LK-2; first compound 2.53 µM) was 0.207, the relative viability (RERF-LC-KJ; first compound 0.08 µM) was 0.807 and the relative viability (RERF-LC-KJ; first compound 0.253 µM) was 0.82. For the same compound, the relative viability (RERF-LC-KJ; first compound 0.8 µM) was 0.741, the relative viability (RERF-LC-KJ; first compound 2.53 µM) was 0.582 and the relative viability (NCI-H1563; first compound 0.08 µM) was 0.834. It also gave a relative viability (NCI-H1563; first compound 0.253 µM) of 0.846, a relative viability (NCI-H1563; first compound 0.8 µM) of 0.789 and a relative viability (NCI-H1563; first compound 2.53 µM) of 0.697. For the same compound, the relative viability (HCC-827; first compound 0.08 µM) was 0.897, the relative viability (HCC-827; first compound 0.253 µM) was 0.818 and the relative viability (HCC-827; first compound 0.8 µM) was 0.887. For the same compound, the relative viability (HCC-827; first compound 2.53 µM) was 0.949, the relative viability (PC-3 [JPC-3]; first compound 0.08 µM) was 0.936 and the relative viability (PC-3 [JPC-3]; first compound 0.253 µM) was 0.903. The relative viability (PC-3 [JPC-3]; first compound 0.8 µM) was 0.966, the relative viability (PC-3 [JPC-3]; first compound 2.53 µM) was 0.92 and the relative viability (NCI-H520; first compound 0.08 µM) was 0.778. It also gave a relative viability (NCI-H520; first compound 0.253 µM) of 0.665, a relative viability (NCI-H520; first compound 0.8 µM) of 0.668 and a relative viability (NCI-H520; first compound 2.53 µM) of 0.68. The relative viability (NCI-H1437; first compound 0.08 µM) was 1.03, the relative viability (NCI-H1437; first compound 0.253 µM) was 0.915 and the relative viability (NCI-H1437; first compound 0.8 µM) was 0.947. The relative viability (NCI-H1437; first compound 2.53 µM) was 0.788, the relative viability (EKVX; first compound 0.08 µM) was 1.09 and the relative viability (EKVX; first compound 0.253 µM) was 0.95. It also gave a relative viability (EKVX; first compound 0.8 µM) of 0.975, a relative viability (EKVX; first compound 2.53 µM) of 0.586 and a relative viability (CAL-12T; first compound 0.08 µM) of 0.687. The relative viability (CAL-12T; first compound 0.253 µM) was 0.449, the relative viability (CAL-12T; first compound 0.8 µM) was 0.419 and the relative viability (CAL-12T; first compound 2.53 µM) was 0.56. The relative viability (NCI-H1650; first compound 0.08 µM) was 1.1, the relative viability (NCI-H1650; first compound 0.253 µM) was 0.699 and the relative viability (NCI-H1650; first compound 0.8 µM) was 0.948. For the same compound, the relative viability (NCI-H1650; first compound 2.53 µM) was 0.729, the relative viability (HCC-15; first compound 0.08 µM) was 0.968 and the relative viability (HCC-15; first compound 0.253 µM) was 0.746. The relative viability (HCC-15; first compound 0.8 µM) was 0.823, the relative viability (HCC-15; first compound 2.53 µM) was 0.743 and the relative viability (PC-14; first compound 0.08 µM) was 0.97. It also gave a relative viability (PC-14; first compound 0.253 µM) of 0.818, a relative viability (PC-14; first compound 0.8 µM) of 0.834 and a relative viability (PC-14; first compound 2.53 µM) of 0.749. For the same compound, the relative viability (NCI-H1734; first compound 0.08 µM) was 0.725, the relative viability (NCI-H1734; first compound 0.253 µM) was 0.637 and the relative viability (NCI-H1734; first compound 0.8 µM) was 0.662. For the same compound, the relative viability (NCI-H1734; first compound 2.53 µM) was 0.619, the relative viability (COR-L23; first compound 0.08 µM) was 0.77 and the relative viability (COR-L23; first compound 0.253 µM) was 0.675. The relative viability (COR-L23; first compound 0.8 µM) was 0.671, the relative viability (COR-L23; first compound 2.53 µM) was 0.555 and the relative viability (SW 1573; first compound 0.08 µM) was 0.948. It also gave a relative viability (SW 1573; first compound 0.253 µM) of 0.85, a relative viability (SW 1573; first compound 0.8 µM) of 0.757 and a relative viability (SW 1573; first compound 2.53 µM) of 0.646. The relative viability (NCI-H1355; first compound 0.08 µM) was 1.05, the relative viability (NCI-H1355; first compound 0.253 µM) was 0.9 and the relative viability (NCI-H1355; first compound 0.8 µM) was 0.828. It also gave a relative viability (NCI-H1355; first compound 2.53 µM) of 0.725, a relative viability (NCI-H661; first compound 0.08 µM) of 0.922 and a relative viability (NCI-H661; first compound 0.253 µM) of 0.961. The relative viability (NCI-H661; first compound 0.8 µM) was 0.953, the relative viability (NCI-H661; first compound 2.53 µM) was 0.969 and the relative viability (NCI-H322M; first compound 0.08 µM) was 1.03. For the same compound, the relative viability (NCI-H322M; first compound 0.253 µM) was 0.83, the relative viability (NCI-H322M; first compound 0.8 µM) was 0.911 and the relative viability (NCI-H322M; first compound 2.53 µM) was 0.547. It also gave a relative viability (H3255; first compound 0.08 µM) of 0.942, a relative viability (H3255; first compound 0.253 µM) of 0.873 and a relative viability (H3255; first compound 0.8 µM) of 0.725. For the same compound, the relative viability (H3255; first compound 2.53 µM) was 0.7, the relative viability (ABC-1; first compound 0.08 µM) was 1.32 and the relative viability (ABC-1; first compound 0.253 µM) was 0.905. The relative viability (ABC-1; first compound 0.8 µM) was 0.908, the relative viability (ABC-1; first compound 2.53 µM) was 0.603 and the relative viability (NCI-H2405; first compound 0.08 µM) was 0.906. The relative viability (NCI-H2405; first compound 0.253 µM) was 0.816, the relative viability (NCI-H2405; first compound 0.8 µM) was 0.808 and the relative viability (NCI-H2405; first compound 2.53 µM) was 0.775. It also gave a relative viability (NCI-H2228; first compound 0.08 µM) of 0.431, a relative viability (NCI-H2228; first compound 0.253 µM) of 0.438 and a relative viability (NCI-H2228; first compound 0.8 µM) of 0.464. The relative viability (NCI-H2228; first compound 2.53 µM) was 0.398.
